Source: patent US8343939B2, “Methods of modulating angiogenesis” (Joslin Diabetes Center, Inc., priority 2007, dated 2013)

Columns and labels:
[1] = test system: eNOS Ser1179 phosphorylation; experiment: Western blot of eNOS phosphorylation in BAEC; format: cell-based, bovine; conditions: for eNOS Ser1179 phosphorylation increased during stimulation: insulin 100 nM or VEGF 1 nM
Experimental: (§1) Bovine aortic endothelial cells (BAEC) were isolated by scraping the luminal side of a calf aorta with a cover glass and transferring the harvested material to a 100 mm cell culture dish. The primary culture and subcultures were grown in Dulbecco's modified Eagle medium (DMEM) with 5.5 mM glucose, 10% (v/v) horse serum, 25 mM HEPES, 100 U/ml penicillin, and 100 μg/ml streptomycin in collagen I-coated dishes (BioCoat, BD BioSciences). Purity of the cultures was validated by the presence of typical “cobblestone” morphology during phase-contrast microscopy (16) and by the ability of cells to take up acetylated LDL (DiI AcLDL, Molecular Probes, Eugene, Oreg.). Cultures used for experiments were plated in 6-well plates (9.5 cm^2 wells), except for PKC translocation assays (see below). The cells were serum-starved for 16 hours before stimulation by replacing growth medium with DMEM containing 0.1% (w/v) bovine serum albumin. At the time of stimulation, cultures were typically 3 days old and confluent. GF109203X (GFX) (Calbiochem, San Diego, Calif.), wortmannin (Calbiochem), phorbol-12-myristate-13-acetate (PMA) (Sigma, St. Louis, Mo.), bovine insulin (Sigma), and VEGF-A165 (R & D Systems, Minneapolis, Minn.) were added directly to the culture medium when indicated, using an identical volume of solvent as control.
(§2) Cultures were washed twice with ice-cold PBS and lysed in a buffer containing Tris (20 mM, pH 7.5), Triton X-100 (1% v/v), sodium pyrophosphate (2.5 mM); NaF (10 mM), NaCl (140 mM), EDTA (1 mM), EGTA (1 mM), β-glycerophosphate (1 mM), Na3VO4 (1 mM), leupeptin (1 μg/ml=2 μM), aprotinin (1 μg/ml=[…]), and phenylmethylsulfonylfluoride (1 mM). Protein concentration was measured by the Bradford method and samples reduced in modified Laemmli buffer (Invitrogen) and heated at 70° C. for 10 minutes. Equal sample volume and protein mass and reduced samples were separated on precast minigels (NuPAGE tris-acetate gels, Invitrogen) and electrotransferred to nitrocellulose.
(§3) Primary antibody targets were visualized by incubation with horseradish peroxidase-linked secondary antibodies, enhanced chemiluminescence (Amersham Biosciences (currently GE Healthcare), Piscataway, N.J.), and exposure to X-ray film (Kodak, New Haven, Conn.). The film was scanned and signal intensity of protein bands quantitated with ImageQuant software (version 5.1, Molecular Dynamics/Amersham Biosciences/GE Healthcare, Piscataway, N.J.). The intensity of phospho-specific immunoblot was normalized to the intensity of the unstimulated condition and of the nonphospho-specific protein.
BAEC were stimulated with insulin (100 nM, 5 minutes) or VEGF (1 nM, 5 minutes) after pretreatment with PMA (100 nM, 30 minutes) or vehicle as a control (DMSO, 0.2% (v/v)). Akt and eNOS phosphorylation in the BAEC was examined. In some experiments (FIGS. 1C and 1D), BAEC were also incubated with GFX (1 μM) or vehicle (DMSO 0.2%) 60 minutes before insulin or VEGF stimulation.
(§4) BAEC were stimulated with insulin (100 nM, 5 minutes) or VEGF (1 nM, 5 minutes) after pretreatment with wortmannin (100 nM, 30 minutes before insulin or VEGF stimulation) or vehicle (DMSO 0.2% (v/v)). In some experiments (FIG. 2C), BAEC were incubated with wortmannin (60 minutes before VEGF stimulation) or DMSO, then with PMA (30 minutes before VEGF stimulation) or DMSO.

[2] = test system: Akt Ser473 phosphorylation; experiment: Western blot of Akt phosphorylation in BAEC; format: cell-based, bovine; conditions: for decrease in Akt Ser473 phosphorylation: PMA 100 nM, 30 minutes; for Akt Ser473 phosphorylation increased after stimulation: BAEC, insulin 100 nM or VEGF 1 nM
Experimental: as §1, §2, §3
BAEC were stimulated with insulin (100 nM, 5 minutes) or VEGF (1 nM, 5 minutes) after pretreatment with PMA (100 nM, 30 minutes) or vehicle as a control (DMSO, 0.2% (v/v)). Akt and eNOS phosphorylation in the BAEC was examined. […]
as §4

[3] = test system: PKCδ; conditions: for translocation of PKCδ from cytosol to membrane fractions: VEGF 1 nM, 3, 10 or 30 minutes, PMA 100 nM, 10 minutes
Experimental: (§5) For each condition, three 15 cm plates (each 151 cm^2) were used. After stimulation, the plates were washed twice in ice-cold PBS and once in a hypertonic lysis buffer (Buffer A) containing Tris (pH 7.5, 20 mM), sucrose (300 mM), EDTA (2 mM), EGTA (0.5 mM), DTT (1 mM), leupeptin (10 μg/ml), and PMSF (1 mM). Each set of 3 plates were then scraped in a combined volume of 3 ml of hypertonic buffer, homogenized in a glass Dounce homogenizer, and centrifuged at 1,000×g for 10 minutes. The supernatant was ultracentrifuged at 100,000×g for 30 minutes, and the ensuing supernatant was taken aside and used as the cytosolic fraction. The pellet was washed once in Buffer B (Buffer A without sucrose), then homogenized in 2.7 ml Buffer B in a glass Dounce homogenizer, and finally lysed by adding 0.3 ml Triton X-100 to a final concentration of 1% (v/v) and rotated for 30 minutes. After ultracentrifugation at 100,000×g for 30 minutes, the supernatant was taken aside and used as the membrane fraction. By using similar volumes for the initial lysis and for the membrane pellet, protein abundance in the cytosol and membrane fraction approximately represent their relative expression in the intact cell. Protein concentration was measured in both fractions with the bicinchoninic acid (BCA) assay, and samples were normalized for protein concentration and assayed by electrophoresis and Western blotting as described below.
(§6) BAEC were stimulated with VEGF (1 nM; 3, 10, or 30 minutes) or PMA (100 nM, 10 minutes).

[4] = target: PKCα (Bos taurus, UniProt P04409); experiment: Membrane translocation of PKC isoforms (cell fractionation, immunoblot) in BAEC; format: cell-based, bovine; conditions: for translocation of PKCα from cytosol to membrane fractions: VEGF 1 nM, 3, 10 or 30 minutes, PMA 100 nM, 10 minutes
[5] = test system: PKCε; conditions: for translocation of PKCε from cytosol to membrane fractions: VEGF 1 nM, 3, 10 or 30 minutes, PMA 100 nM, 10 minutes
Experimental: as §5, §6

[6] = test system: Erk1/2 phosphorylation; experiment: Western blot of Erk1/2 phosphorylation in BAEC; format: cell-based, bovine; conditions: control siRNA; VEGF 1 nM, 5 minutes
Experimental: as §2, §3

[7] = test system: BAEC; experiment: DNA synthesis by BrdU incorporation in BAEC; format: cell-based, bovine; conditions: control siRNA condition; VEGF 1 nM
Experimental: For measurement of DNA synthesis, cells were trypsin-treated 2 days after transfection with siRNA, and 10,000 cells were added to each well (0.32 cm^2) of 96-well plates in serum-free DMEM with 0.1% BSA, with or without VEGF 1 nM. After 16 hours, cells were labeled with 5-bromo-2′-deoxyuridine (BrdU) according to the manufacturer's instructions (Roche Applied Science, Penzberg, Germany). In short, the medium was replaced with medium containing 10 μM BrdU. After an additional 8 hours, cells were fixed and incubated with anti-BrdU antibody conjugated with peroxidase. After washing, a solution of tetramethyl-benzidine was added, and the color reaction quantitated by measuring the difference between the optical density at 370 and 492 nm.

[8] = test system: VEGFR2; experiment: VEGFR2 protein expression (immunoprecipitation and immunoblot) in BAEC; format: cell-based, bovine; conditions: cells transfected with control siRNA; VEGF 1 nM, 5 minutes
Experimental: For VEGFR2 and VEGFR1 immunoprecipitation, approximately 1 mg of protein was immunoprecipitated with 20 μg polyclonal antibody (Santa Cruz Biotechnology, Santa Cruz, Calif.) and washed 3 times with lysis buffer. Whole cell lysate or immunoprecipitates were reduced by addition of modified Laemmli buffer (Invitrogen) and heating to 70° C. for 10 minutes. Samples were then separated on precast minigels (NuPAGE tris-acetate gels, Invitrogen) and electrotransferred to a nitrocellulose membrane. […]
as §3, with “The intensity of phospho-specific immunoblot was normalized to the intensity of the unstimulated condition and of the nonphospho-specific protein.” left out

[9] = test system: eNOS, Akt, Erk, or p38; experiment: Phosphorylation of eNOS, Akt, Erk, p38 after placental growth factor in BAEC; format: cell-based, bovine; conditions: data not shown
Experimental: Next, VEGFR1 and VEGFR2 expression was examined. BAEC were transfected with siRNA, including the PKCε siRNA used in the previous experiments (abbreviated “ε1” here) and a second PKCε (“ε2”), grown, and serum-starved. VEGFR2 (a) or VEGFR1 (b) mRNA was measured in cell lysate by real-time PCR VEGF signal transduction during PKC knockdown could change because VEGFR2 expression results in a secondary change in VEGFR1/Fms-like tyrosine kinase-1 (Flt-1) expression. Indeed, PKCα and PKCδ knockdown increased VEGFR1 mRNA expression to 240±20 and 178±1% of the control siRNA condition, respectively (FIG. 12b, p<0.01). […] VEGFR1 protein or VEGFR1-mediated signal transduction was not detected by Western blotting in these cells. […] Thus, VEGFR1 protein is likely expressed at a very low level compared to VEGFR2 in BAEC. Changes seen in VEGF signal transduction during PKCα and δ knockdown could be influenced by upregulation of VEGFR1, but there is no indication that changes in VEGF signaling during PKCε knockdown can be attributed to changes in VEGFR1 mRNA expression.

[10] = GFX 1 μM, 30 minutes pre-incubation, with or without insulin or VEGF
[11] = control siRNA condition, VEGF 1 nM, 5 minutes

## CN(C)CCCn1cc(C2=C(c3c[nH]c4ccccc34)C(=O)NC2=O)c2ccccc21 [GFX, GF109203X]
[1]; [10]
  effect on the actions of PMA on eNOS phosphorylation: completely prevented
[2]; [10]
  effect on the actions of PMA on Akt phosphorylation: completely prevented

## CCCCCCCCCCCCCC(=O)O[C@@H]1[C@@H](C)[C@@]2(O)[C@@H](C=C(CO)C[C@]3(O)C(=O)C(C)=C[C@@H]23)[C@@H]2C(C)(C)[C@]12OC(C)=O [PMA, phorbol-12-myristate-13-acetate]
[1]; PMA 100 nM, 30 minutes, VEGF 1 nM, 5 minutes
  eNOS Ser1179 phosphorylation increase when VEGF was preceded by PMA: 2.7±0.4 fold
[1]; PMA 100 nM, 30 minutes, insulin 100 nM, 5 minutes
  eNOS Ser1179 phosphorylation increase when insulin was preceded by PMA: 1.2±0.2 fold
[1]; PMA in the presence of wortmannin
  increase in VEGF-stimulated eNOS Ser1179 phosphorylation: 50±9%
[3]
  translocation of PKCδ from cytosol to membrane fractions: stimulated translocation
[2]; after VEGF stimulation (1 nM, 5 minutes)
  decrease in Akt Ser473 phosphorylation: 79±4%
[2]; after insulin stimulation (100 nM, 5 minutes)
  decrease in Akt Ser473 phosphorylation: 81±4%
[2]; basal state
  decrease in Akt Ser473 phosphorylation: 59±12%
[4]
  translocation of PKCα from cytosol to membrane fractions: stimulated translocation
[5]
  translocation of PKCε from cytosol to membrane fractions: stimulated translocation

## COC[C@H]1OC(=O)c2coc3c2[C@@]1(C)C1=C(C3=O)[C@@H]2CCC(=O)[C@@]2(C)C[C@H]1OC(C)=O [wortmannin]
[1]; Bos taurus, BAEC, wortmannin 100 nM, 30 minutes, VEGF 1 nM, 5 minutes, read-out: inhibition of VEGF-stimulated eNOS phosphorylation
  inhibition at 0.1 µM: 30 ± 9%
[1]; wortmannin 100 nM, 30 minutes, unstimulated
  eNOS phosphorylation, % of basal: 63±1 % of basal

## VEGF
[6]
  VEGF-increased phosphorylation of Erk1/2: 10±1.8 fold
[1]; BAEC, 5 minutes
  eNOS Ser1179 phosphorylation increased during stimulation: 2.6±0.5 fold
[1]; [11]
  VEGF-stimulated eNOS phosphorylation, fold increase: 5.2±0.5 fold
[3]
  translocation of PKCδ from cytosol to membrane fractions: stimulated translocation
[3]; VEGF 1 nM, at 3 minutes
  maximal decrease in cytosol expression of PKCδ: 29±25%
[3]; VEGF 1 nM, at 10 minutes
  maximal increase in membrane expression of PKCδ: 39±10%
[7]
  VEGF-increased BrdU incorporation: 34%
[2]; 5 minutes
  Akt Ser473 phosphorylation increased after stimulation: 2.9±0.8 fold
[2]; [11]
  VEGF-stimulated Akt phosphorylation, fold increase: 1.7±0.1 fold
[4]
  translocation of PKCα from cytosol to membrane fractions: stimulated translocation
[4]; VEGF 1 nM, at 3 minutes
  maximal decrease in cytosol expression of PKCα: 18±10%
  maximal increase in membrane expression of PKCα: 72±57%
[8]
  VEGF-stimulated decrease in VEGFR2 protein: 12±3%
[5]
  translocation of PKCε from cytosol to membrane fractions: stimulated translocation
[5]; VEGF 1 nM, at 3 minutes
  maximal decrease in cytosol expression of PKCε: 57±21%
  maximal increase in membrane expression of PKCε: 31±5%

## insulin: bovine insulin (Sigma)
[1]; BAEC, 5 minutes
  eNOS Ser1179 phosphorylation increased during stimulation: 1.8±0.2 fold
[2]; 5 minutes
  Akt Ser473 phosphorylation increased after stimulation: 3.7±0.7 fold

B1: placental growth factor: placental growth factor, which activates VEGFR1 but not VEGFR2 (protein, UniProt P49763 19-221, looked up)
Placenta growth factor: LPAVPPQQWALSAGNGSSEVEVVPFQEVWGRSYCRALERLVDVVSEYPSEVEHMFSPSCVSLLRCTGCCGDENLHCVPVETANVTMQLLKIRSGDRPSYVELTFSQHVRCECRHSPGRQSPDMPGDFRADAPSFLPPRRSLPMLFRMEWGCALTGSQSAVWPSSPVPEEIPRMHPGRNGKKQQRKPLREKMKPERCGDAVPRR
[9]
  phosphorylation of eNOS, Akt, Erk, or p38: did not increase
